Several values for one entry are separate records, joined by “and”; a condition that tells them apart may be missing. Equal values may be shown once. Inconclusive results and toxic doses are left out.
Test system: BDF1 mice, L1210 6-MP/6-TG resistant leukemia ip, survival T/C
Test: NCI In Vivo Anticancer Drug Screen. Data for tumor model L1210 Leukemia resistant to 6-MP and 6-Thioguanine; NSC 755, NSC 752 (intraperitoneal) in B6D2F1 (BDF1) mice
Settings: endpoint: mean survival time, higher = longer survival
Method: The antitumor activity of compounds was measured in mice bearing transplantable tumors. Survival or tumor size were measured and the results are expressed as the measurement made in the treated group (T) divided by the measurement made in the vehicle treated control group (C). The tumor model used in this assay is L1210 Leukemia resistant to 6-MP and 6-Thioguanine; NSC 755, NSC 752 (intraperitoneal) in B6D2F1 (BDF1) mice

[1] = dose: 12.5 mg/kg/injection, schedule: Q01DX Z (ip), vehicle: carboxymethylcellulose (CMC)
[2] = dose: 25.0 mg/kg/injection, schedule: Q01DX Z (ip), vehicle: carboxymethylcellulose (CMC)
[3] = dose: 1000.0 mg/kg/injection, schedule: Q01DX001 (ip), vehicle: carboxymethylcellulose (CMC)
[4] = dose: 125.0 mg/kg/injection, schedule: Q01DX Z (ip), vehicle: carboxymethylcellulose (CMC)
[5] = dose: 250.0 mg/kg/injection, schedule: Q01DX Z (ip), vehicle: carboxymethylcellulose (CMC)
[6] = dose: 500.0 mg/kg/injection, schedule: Q01DX Z (ip), vehicle: carboxymethylcellulose (CMC)

## S=c1nc[nH]c2nc[nH]c12
dose: 3.5 mg/kg/injection, schedule: Q01DX Z (ip), vehicle: carboxymethylcellulose (CMC)
  T/C: 99 % of control
dose: 5.0 mg/kg/injection, schedule: Q01DX015 (ip), vehicle: carboxymethylcellulose (CMC)
  T/C: 93 % of control and 101 % of control
dose: 7.0 mg/kg/injection, schedule: Q01DX Z (ip), vehicle: carboxymethylcellulose (CMC)
  T/C: 100 % of control and 103 % of control and 106 % of control
dose: 8.0 mg/kg/injection, schedule: Q01DX015 (ip), vehicle: carboxymethylcellulose (CMC)
  T/C: 94 % of control and 97 % of control and 103 % of control
dose: 10.0 mg/kg/injection, schedule: Q01DX015 (ip), vehicle: alkali diluted with saline
  T/C: 96 % of control
dose: 12.0 mg/kg/injection, schedule: Q01DX015 (ip), vehicle: carboxymethylcellulose (CMC)
  T/C: 90 % of control and 95 % of control and 96 % of control
dose: 12.0 mg/kg/injection, schedule: Q01DX Z (ip), vehicle: carboxymethylcellulose (CMC)
  T/C: 110 % of control
[1]
  T/C: 95 % of control
dose: 14.0 mg/kg/injection, schedule: Q01DX Z (ip), vehicle: carboxymethylcellulose (CMC)
  T/C: 96 % of control and 98 % of control and 104 % of control
dose: 16.0 mg/kg/injection, schedule: Q01DX015 (ip), vehicle: carboxymethylcellulose (CMC)
  T/C: 95 % of control
dose: 18.0 mg/kg/injection, schedule: Q01DX015 (ip), vehicle: carboxymethylcellulose (CMC)
  T/C: 93 % of control and 100 % of control
dose: 19.0 mg/kg/injection, schedule: Q01DX Z (ip), vehicle: carboxymethylcellulose (CMC)
  T/C: 123 % of control
dose: 20.0 mg/kg/injection, schedule: Q01DX015 (ip), vehicle: alkali diluted with saline
  T/C: 103 % of control
dose: 20.0 mg/kg/injection, schedule: Q01DX015 (ip), vehicle: carboxymethylcellulose (CMC)
  T/C: 96 % of control
dose: 20.0 mg/kg/injection, schedule: Q01DX Z (ip), vehicle: carboxymethylcellulose (CMC)
  T/C: 101 % of control
dose: 24.0 mg/kg/injection, schedule: Q01DX015 (ip), vehicle: carboxymethylcellulose (CMC)
  T/C: 93 % of control
[2]
  T/C: 88 % of control
dose: 26.0 mg/kg/injection, schedule: Q01DX001 (ip), vehicle: alkali diluted with saline
  T/C: 97 % of control and 101 % of control
dose: 27.0 mg/kg/injection, schedule: Q01DX015 (ip), vehicle: carboxymethylcellulose (CMC)
  T/C: 96 % of control and 100 % of control
dose: 40.0 mg/kg/injection, schedule: Q01DX001 (ip), vehicle: alkali diluted with saline
  T/C: 96 % of control and 98 % of control (2×)
dose: 40.0 mg/kg/injection, schedule: Q01DX001 (ip), vehicle: carboxymethylcellulose (CMC)
  T/C: 102 % of control and 109 % of control
dose: 40.0 mg/kg/injection, schedule: Q01DX015 (ip), vehicle: alkali diluted with saline
  T/C: 103 % of control
dose: 40.0 mg/kg/injection, schedule: Q01DX015 (ip), vehicle: carboxymethylcellulose (CMC)
  T/C: 92 % of control and 95 % of control
dose: 42.0 mg/kg/injection, schedule: Q01DX Z (ip), vehicle: carboxymethylcellulose (CMC)
  T/C: 103 % of control
dose: 50.0 mg/kg/injection, schedule: Q01DX Z (ip), vehicle: carboxymethylcellulose (CMC)
  T/C: 91 % of control
dose: 56.0 mg/kg/injection, schedule: Q01DX Z (ip), vehicle: carboxymethylcellulose (CMC)
  T/C: 93 % of control and 97 % of control
dose: 59.0 mg/kg/injection, schedule: Q01DX001 (ip), vehicle: carboxymethylcellulose (CMC)
  T/C: 100 % of control
dose: 60.0 mg/kg/injection, schedule: Q01DX001 (ip), vehicle: alkali diluted with saline
  T/C: 96 % of control (2×) and 106 % of control
dose: 60.0 mg/kg/injection, schedule: Q01DX001 (ip), vehicle: carboxymethylcellulose (CMC)
  T/C: 108 % of control
dose: 60.0 mg/kg/injection, schedule: Q01DX010 (ip), vehicle: alkali diluted with saline
  T/C: 94 % of control
dose: 90.0 mg/kg/injection, schedule: Q01DX001 (ip), vehicle: alkali diluted with saline
  T/C: 87 % of control and 97 % of control and 103 % of control
dose: 90.0 mg/kg/injection, schedule: Q01DX001 (ip), vehicle: carboxymethylcellulose (CMC)
  T/C: 99 % of control and 102 % of control
dose: 100.0 mg/kg/injection, schedule: Q01DX Z (ip), vehicle: carboxymethylcellulose (CMC)
  T/C: 91 % of control
dose: 135.0 mg/kg/injection, schedule: Q01DX001 (ip), vehicle: alkali diluted with saline
  T/C: 96 % of control and 103 % of control and 105 % of control
dose: 150.0 mg/kg/injection, schedule: Q01DX001 (ip), vehicle: carboxymethylcellulose (CMC)
  T/C: 96 % of control
dose: 202.0 mg/kg/injection, schedule: Q01DX001 (ip), vehicle: alkali diluted with saline
  T/C: 99 % of control and 100 % of control and 102 % of control
dose: 203.0 mg/kg/injection, schedule: Q01DX001 (ip), vehicle: carboxymethylcellulose (CMC)
  T/C: 95 % of control

## O=P(O)(OCC1OC(n2cnc3c(=S)nc[nH]c32)C(O)C1O)Oc1ccccc1 (stereo not drawn)
dose: 200.0 mg/kg/injection, schedule: Q01DX001 (ip), vehicle: carboxymethylcellulose (CMC)
  T/C: 103 % of control
dose: 300.0 mg/kg/injection, schedule: Q01DX001 (ip), vehicle: carboxymethylcellulose (CMC)
  T/C: 99 % of control
dose: 400.0 mg/kg/injection, schedule: Q01DX001 (ip), vehicle: carboxymethylcellulose (CMC)
  T/C: 100 % of control
dose: 500.0 mg/kg/injection, schedule: Q01DX001 (ip), vehicle: carboxymethylcellulose (CMC)
  T/C: 103 % of control
dose: 750.0 mg/kg/injection, schedule: Q01DX001 (ip), vehicle: carboxymethylcellulose (CMC)
  T/C: 94 % of control
[3]
  T/C: 86 % of control

## S=P(N1CCOCC1)(N1CC1)N1CC1
dose: 1.87 mg/kg/injection, schedule: Q01DX Z (ip), vehicle: carboxymethylcellulose (CMC)
  T/C: 90 % of control
dose: 2.5 mg/kg/injection, schedule: Q01DX Z (ip), vehicle: carboxymethylcellulose (CMC)
  T/C: 93 % of control
dose: 3.75 mg/kg/injection, schedule: Q01DX Z (ip), vehicle: carboxymethylcellulose (CMC)
  T/C: 151 % of control
dose: 5.0 mg/kg/injection, schedule: Q01DX Z (ip), vehicle: carboxymethylcellulose (CMC)
  T/C: 117 % of control
dose: 7.5 mg/kg/injection, schedule: Q01DX Z (ip), vehicle: carboxymethylcellulose (CMC)
  T/C: 116 % of control
[1]
  T/C: 109 % of control
dose: 15.0 mg/kg/injection, schedule: Q01DX Z (ip), vehicle: carboxymethylcellulose (CMC)
  T/C: 118 % of control

## OCC1OC(n2cnc3c(Cl)ncnc32)C(O)C1O (stereo not drawn)
dose: 62.5 mg/kg/injection, schedule: Q01DX Z (ip), vehicle: carboxymethylcellulose (CMC)
  T/C: 91 % of control
[4]
  T/C: 89 % of control
[5]
  T/C: 95 % of control
[6]
  T/C: 95 % of control
[3]
  T/C: 92 % of control and 97 % of control
dose: 1500.0 mg/kg/injection, schedule: Q01DX001 (ip), vehicle: carboxymethylcellulose (CMC)
  T/C: 94 % of control and 99 % of control
dose: 2000.0 mg/kg/injection, schedule: Q01DX001 (ip), vehicle: carboxymethylcellulose (CMC)
  T/C: 94 % of control and 97 % of control

## O=c1cn[nH]c(=O)[nH]1
[4]
  T/C: 109 % of control
[5]
  T/C: 115 % of control
dose: 375.0 mg/kg/injection, schedule: Q01DX Z (ip), vehicle: carboxymethylcellulose (CMC)
  T/C: 121 % of control
[6]
  T/C: 121 % of control

## Nc1nc2n[nH]nc2c(=O)[nH]1
dose: 12.5 mg/kg/injection, schedule: Q01DX Z (ip), vehicle: water
  T/C: 100 % of control
dose: 25.0 mg/kg/injection, schedule: Q01DX Z (ip), vehicle: water
  T/C: 104 % of control
dose: 50.0 mg/kg/injection, schedule: Q01DX Z (ip), vehicle: water
  T/C: 98 % of control
dose: 100.0 mg/kg/injection, schedule: Q01DX Z (ip), vehicle: water
  T/C: 92 % of control
dose: 200.0 mg/kg/injection, schedule: Q01DX Z (ip), vehicle: water
  T/C: 95 % of control

## OCC1OC(n2cnc3c(=S)nc[nH]c32)CC1O (stereo not drawn)
dose: 62.0 mg/kg/injection, schedule: Q01DX015 (ip), vehicle: carboxymethylcellulose (CMC)
  T/C: 98 % of control
dose: 125.0 mg/kg/injection, schedule: Q01DX015 (ip), vehicle: carboxymethylcellulose (CMC)
  T/C: 96 % of control
dose: 250.0 mg/kg/injection, schedule: Q01DX015 (ip), vehicle: carboxymethylcellulose (CMC)
  T/C: 93 % of control

## Cc1cc(N(CCCl)CCCl)ccc1N=Nc1ccccc1C(=O)O
dose: 4.5 mg/kg/injection, schedule: Q01DX Z (ip), vehicle: carboxymethylcellulose (CMC)
  T/C: 119 % of control
dose: 9.0 mg/kg/injection, schedule: Q01DX Z (ip), vehicle: carboxymethylcellulose (CMC)
  T/C: 124 % of control
dose: 18.75 mg/kg/injection, schedule: Q01DX Z (ip), vehicle: carboxymethylcellulose (CMC)
  T/C: 114 % of control
[2]
  T/C: 123 % of control
dose: 37.5 mg/kg/injection, schedule: Q01DX Z (ip), vehicle: carboxymethylcellulose (CMC)
  T/C: 90 % of control

## O=CCC(O)C(O)C(O)CO (stereo not drawn)
dose: 375.0 mg/kg/injection, schedule: Q01DX Z (ip), vehicle: saline
  T/C: 113 % of control
dose: 500.0 mg/kg/injection, schedule: Q01DX Z (ip), vehicle: saline
  T/C: 113 % of control
dose: 750.0 mg/kg/injection, schedule: Q01DX Z (ip), vehicle: saline
  T/C: 116 % of control
dose: 1000.0 mg/kg/injection, schedule: Q01DX Z (ip), vehicle: saline
  T/C: 123 % of control
